Here are results for 5 molecules from ChEMBL document CHEMBL2385034, “Discovery, synthesis and in combo studies of a tetrazole analogue of clofibric acid as a potent hypoglycemic agent” (2013).

One may read the inhibition as the percentage by which the read-out fell short of the control.

Calls of active or inactive are those of the source. No cut-off for these calls is given here.

For assay [1], the target named is 11-beta-hydroxysteroid dehydrogenase 1 (Homo sapiens) (UniProt P28845). The assay is described as follows: Inhibition of full-length human 11beta-HSD1 expressed in HEK293 cells at 10 uM after 2 hrs by scintillation proximity assay relative to control. It is filed as cell-based. (In a scintillation proximity assay essentially only radioactivity close to the scintillant gives light.)

The subject of assay [2] is Rattus norvegicus. The assay is described as follows: Hypoglycemic activity in STZ-nicotinamide-induced Wistar rat diabetic model at 5 mg/kg, po after 1 to 7 hrs. It is filed as functional, organism-based. Also on record: dose 5 mg/kg.
The species entered for assay [3] is Rattus norvegicus. The assay is described as follows: Hypoglycemic activity in STZ-nicotinamide-induced Wistar rat diabetic model after 1 to 7 hrs. It counts as functional, organism-based.
Assay [4] concerns the target 11-beta-hydroxysteroid dehydrogenase 1 (Homo sapiens) (UniProt P28845). The assay is described as follows: Inhibition of full-length human 11beta-HSD1 expressed in HEK293 cells at 10 uM after 2 hrs by scintillation proximity assay relative to clofibric acid. It is filed as cell-based.
In assay [5] the test system is Rattus norvegicus. The assay can be described thus: Hypoglycemic activity in STZ-nicotinamide-induced Wistar rat diabetic model at 50 mg/kg, ig after 1 to 7 hrs relative to control. It is filed as functional. The note with it: route intragastric.
Assay [6] concerns the target 11-beta-hydroxysteroid dehydrogenase 1 (Homo sapiens) (UniProt P28845). The assay is described as follows: Inhibition of full-length human 11beta-HSD1 expressed in HEK293 cells at 10 uM after 2 hrs by scintillation proximity assay relative to clofibrate. It is filed as cell-based.

Chain of 11-beta-hydroxysteroid dehydrogenase 1 (Homo sapiens) (P28845 whole entry, looked up): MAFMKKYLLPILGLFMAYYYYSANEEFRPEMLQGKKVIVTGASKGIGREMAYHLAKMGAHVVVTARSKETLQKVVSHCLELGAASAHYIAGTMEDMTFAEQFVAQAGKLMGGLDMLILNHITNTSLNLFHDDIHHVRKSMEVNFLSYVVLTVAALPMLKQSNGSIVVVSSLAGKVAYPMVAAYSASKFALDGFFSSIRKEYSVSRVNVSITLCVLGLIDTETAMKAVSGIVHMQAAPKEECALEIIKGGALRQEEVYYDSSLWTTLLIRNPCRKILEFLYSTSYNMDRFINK

`CC1(C)[C@@H](OC(=O)CCC(=O)O)CC[C@]2(C)[C@H]3C(=O)C=C4[C@@H]5C[C@@](C)(C(=O)O)CC[C@]5(C)CC[C@@]4(C)[C@]3(C)CC[C@@H]12`: in assay [1], the inhibition is 78.3%.

On to `CCOC(=O)C(C)(C)Oc1ccc(Cl)cc1`, for which, in assay [1], the inhibition was found to be 18.1%.

Turning to `COc1ccc(Cl)cc1C(=O)NCCc1ccc(S(=O)(=O)NC(=O)NC2CCCCC2)cc1`, in the assay with Rattus norvegicus [2], the outcome was Active.

For the molecule `CC(C)(Oc1ccc(Cl)cc1)C(=O)O`, the result in the assay listed under Rattus norvegicus [3] was inactive. Also, the inhibition in assay [1] was 19.1%.

With `CC(C)(Oc1ccc(Cl)cc1)C(=O)Nc1nnn[nH]1`, the fold change (FC) in assay [4] and in assay [6] was 2.5 throughout. The molecule also came in with an Activity in the assay on Rattus norvegicus [5] of 16%. In assay [1], this molecule displayed an inhibition of 51.2%.
